Data taken from USRE38117E1, “Trioxane dimer compound having antiproliferative and antitumor activities” (Hauser, Inc., priority 1995, dated 2003).

Tests used:
Format in all cases: cell-based
MALME-3M = assay: NCI 60 cell line screen (SRB), Melanoma; conditions: MALME-3M (Melanoma)
OVCAR-8 = assay: NCI 60 cell line screen (SRB), Ovarian Cancer; conditions: OVCAR-8 (Ovarian Cancer)
MOLT-4 = assay: NCI 60 cell line screen (SRB), Leukemia
NCI-H226 = assay: NCI 60 cell line screen (SRB), Non-Small Cell Lung Cancer
UACC-257 = assay: NCI 60 cell line screen (SRB), Melanoma; conditions: UACC-257 (Melanoma)
HT29 = assay: NCI 60 cell line screen (SRB), Colon Cancer
SNB-75 = assay: NCI 60 cell line screen (SRB), CNS Cancer; conditions: SNB-75 (CNS Cancer)
OVCAR-5 = assay: NCI 60 cell line screen (SRB), Ovarian Cancer; conditions: OVCAR-5 (Ovarian Cancer)
HS 578T = assay: NCI 60 cell line screen (SRB), Breast Cancer; conditions: HS 578T (Breast Cancer)
COLO 205 = assay: NCI 60 cell line screen (SRB), Colon Cancer; conditions: COLO 205 (Colon Cancer)
SNB-19 = assay: NCI 60 cell line screen (SRB), CNS Cancer; conditions: SNB-19 (CNS Cancer)
RPMI-8226 = assay: NCI 60 cell line screen (SRB), Leukemia; conditions: RPMI-8226 (Leukemia)
SK-MEL-2 = assay: NCI 60 cell line screen (SRB), Melanoma; conditions: SK-MEL-2 (Melanoma)
U251 = assay: NCI 60 cell line screen (SRB), CNS Cancer
IGROVI = assay: NCI 60 cell line screen (SRB), Ovarian Cancer
NCI-H460 = assay: NCI 60 cell line screen (SRB), Non-Small Cell Lung Cancer
HL-60(TB) = assay: NCI 60 cell line screen (SRB), Leukemia; conditions: HL-60(TB) (Leukemia)
SN12C = assay: NCI 60 cell line screen (SRB), Renal Cancer
SW-620 = assay: NCI 60 cell line screen (SRB), Colon Cancer; conditions: SW-620 (Colon Cancer)
BT-549 = assay: NCI 60 cell line screen (SRB), Breast Cancer; conditions: BT-549 (Breast Cancer)
ACHN = assay: NCI 60 cell line screen (SRB), Renal Cancer

C[C@@H]1CC[C@H]2[C@@H](C)C(=O)O[C@@H]3O[C@@]4(C)CC[C@@H]1[C@]32OO4 [QHS, 3,6,9-trimethyl-9,10b-epidioxyperhydropyrano[4,3,2-jk]benzoxepin-2-one, reference compound]
>−4.00 M: Log10LC50 (MALME-3M) | Log10GI50 (OVCAR-8) | Log10LC50 (OVCAR-8) | Log10TGI (OVCAR-8) | Log10GI50 (NCI-H226) | Log10LC50 (NCI-H226) | Log10TGI (NCI-H226) | Log10GI50 (UACC-257) | Log10LC50 (UACC-257) | Log10TGI (UACC-257) | Log10GI50 (HT29) | Log10LC50 (HT29) | Log10TGI (HT29) | Log10GI50 (SNB-75) | Log10LC50 (SNB-75) | Log10TGI (SNB-75) | Log10GI50 (OVCAR-5) | Log10LC50 (OVCAR-5) | Log10TGI (OVCAR-5) | Log10GI50 (HS 578T) | Log10LC50 (HS 578T) | Log10TGI (HS 578T) | Log10GI50 (COLO 205) | Log10LC50 (COLO 205) | Log10TGI (COLO 205) | Log10GI50 (SNB-19) | Log10LC50 (SNB-19) | Log10TGI (SNB-19) | Log10GI50 (RPMI-8226) | Log10LC50 (RPMI-8226) | Log10TGI (RPMI-8226) | Log10LC50 (SK-MEL-2) | Log10TGI (SK-MEL-2) | Log10GI50 (U251) | Log10LC50 (U251) | Log10TGI (U251) | Log10LC50 (IGROVI) | Log10TGI (IGROVI) | Log10GI50 (NCI-H460) | Log10LC50 (NCI-H460) | Log10TGI (NCI-H460) | Log10LC50 (HL-60(TB)) | Log10LC50 (SN12C) | Log10TGI (SN12C) | Log10GI50 (SW-620) | Log10LC50 (SW-620) | Log10TGI (SW-620) | Log10LC50 (BT-549) | Log10GI50 (ACHN) | Log10LC50 (ACHN) | Log10TGI (ACHN)
−4.06 M: Log10TGI (MALME-3M) | Log10GI50 (BT-549)
−4.73 M: Log10GI50 (MOLT-4; MOLT-4 (Leukemia))
−4.31 M: Log10GI50 (IGROVI)
greater than 10^−4 molar: drug concentration necessary to achieve primary growth inhibition (percentage growth +50) (MOLT-4; MOLT-4, read from dose response curves FIGS. 10a-10e)
−4.00 M: Log10TGI (HL-60(TB)) | Log10TGI (BT-549)
−4.26 M: Log10GI50 (HL-60(TB))
−4.21 M: Log10GI50 (SN12C)
